For series [1], the target named is Phosphatidylinositol 5-phosphate 4-kinase type-2 beta (Homo sapiens) (UniProt P78356). The experiment in a line: Inhibition of wild-type human full length PIP5K2B (M1 to T416 residues) expressed in bacterial expression system at 10 uM by Kinomescan method relative to control.
For series [2], the target named is Protein-tyrosine kinase 6 (Homo sapiens) (UniProt Q13882). As to the kind of experiment: Inhibition of wild-type human partial length BRK (L166 to T451 residues) expressed in bacterial expression system at 10 uM by Kinomescan method relative to control.
In series [3] the target is Casein kinase I isoform delta (Homo sapiens) (UniProt P48730). As to the kind of experiment: Inhibition of wild-type human full length CSNK1D (M1 to K409 residues) expressed in bacterial expression system at 10 uM by Kinomescan method relative to control.
Chain of Casein kinase I isoform delta (Homo sapiens) (P48730 whole entry, looked up, the tested form may be a part, canonical isoform): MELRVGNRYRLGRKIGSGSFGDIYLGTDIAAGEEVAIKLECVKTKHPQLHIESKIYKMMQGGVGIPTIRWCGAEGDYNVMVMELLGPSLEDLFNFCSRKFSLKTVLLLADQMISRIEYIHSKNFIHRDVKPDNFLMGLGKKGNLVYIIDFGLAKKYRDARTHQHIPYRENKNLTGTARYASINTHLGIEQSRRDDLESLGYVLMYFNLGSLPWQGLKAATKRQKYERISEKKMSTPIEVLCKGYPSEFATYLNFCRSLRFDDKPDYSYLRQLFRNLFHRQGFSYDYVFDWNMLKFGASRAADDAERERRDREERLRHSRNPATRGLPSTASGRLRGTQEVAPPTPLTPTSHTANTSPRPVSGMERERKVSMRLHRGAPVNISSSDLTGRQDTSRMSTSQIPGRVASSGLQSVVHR
Series [4] addresses Cyclin-dependent kinase-like 2 (Homo sapiens) (UniProt Q92772). As to the kind of experiment: Inhibition of wild-type human partial length CDKL2 (M1 to D327 residues) expressed in bacterial expression system at 10 uM by Kinomescan method relative to control.
In series [5] the target is MAP kinase-activated protein kinase 2 (Homo sapiens) (UniProt P49137). As to the kind of experiment: Inhibition of wild-type human partial length MAPKAPK2 (V48 to D345 residues) expressed in bacterial expression system at 10 uM by Kinomescan method relative to control.
Chain of MAP kinase-activated protein kinase 2 (Homo sapiens) (P49137 whole entry, looked up, the tested form may be a part): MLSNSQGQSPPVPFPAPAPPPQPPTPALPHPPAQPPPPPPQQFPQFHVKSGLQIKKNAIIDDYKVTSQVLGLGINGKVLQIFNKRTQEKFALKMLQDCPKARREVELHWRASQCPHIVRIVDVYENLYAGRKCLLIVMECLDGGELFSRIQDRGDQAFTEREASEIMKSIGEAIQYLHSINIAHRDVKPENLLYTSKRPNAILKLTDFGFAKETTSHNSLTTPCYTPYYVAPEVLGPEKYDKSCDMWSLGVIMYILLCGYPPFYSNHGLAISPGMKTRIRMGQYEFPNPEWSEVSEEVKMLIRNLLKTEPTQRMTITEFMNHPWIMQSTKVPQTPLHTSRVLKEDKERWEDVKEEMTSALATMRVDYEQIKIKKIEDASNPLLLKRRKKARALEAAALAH
Series [6] addresses Calcium/calmodulin-dependent protein kinase kinase 2 (Homo sapiens) (UniProt Q96RR4). As to the kind of experiment: Inhibition of wild-type human partial length CAMKK2 (D65 to V471 residues) expressed in bacterial expression system at 10 uM by Kinomescan method relative to control.
For series [7], the target named is Serine/threonine-protein kinase pim-3 (Homo sapiens) (UniProt Q86V86). As to the kind of experiment: Inhibition of wild-type human partial length PIM3 (G16 to A317 residues) expressed in bacterial expression system at 10 uM by Kinomescan method relative to control.
The target in series [8] is Activin receptor type-2A (Homo sapiens) (UniProt P27037). As to the kind of experiment: Inhibition of wild-type human ACVR2A (V171 to T499 residues) expressed in bacterial expression system at 10 uM by Kinomescan method relative to control.
Series [9] addresses Calcium/calmodulin-dependent protein kinase type 1B (Homo sapiens) (UniProt Q6P2M8). As to the kind of experiment: Inhibition of wild-type human partial length CAMK1B (W9 to A311 residues) expressed in mammalian expression system at 10 uM by Kinomescan method relative to control.
Series [10] deals with Serine/threonine-protein kinase WNK4 (Homo sapiens) (UniProt Q96J92). As to the kind of experiment: Inhibition of wild-type human partial length WNK4 (A31 to D461 residues) expressed in mammalian expression system at 10 uM by Kinomescan method relative to control.
Series [11] addresses Myotonin-protein kinase (Homo sapiens) (UniProt Q09013). As to the kind of experiment: Inhibition of wild-type human partial length DMPK (V47 to V415 residues) expressed in bacterial expression system at 10 uM by Kinomescan method relative to control.
Series [12] concerns the target Serine/threonine-protein kinase MRCK beta (Homo sapiens) (UniProt Q9Y5S2). As to the kind of experiment: Inhibition of wild-type human partial length MRCKB (L56 to S417 residues) expressed in bacterial expression system at 10 uM by Kinomescan method relative to control.
The target in series [13] is Serine/threonine-protein kinase 32B (Homo sapiens) (UniProt Q9NY57). The experiment in a line: Inhibition of wild-type human full length YANK2 (M1 to S414 residues) expressed in bacterial expression system at 10 uM by Kinomescan method relative to control.
Series [14] concerns the target Mitogen-activated protein kinase 9 (Homo sapiens) (UniProt P45984). As to the kind of experiment: Inhibition of wild-type human full length JNK2 (M1 to Q382 residues) expressed in mammalian expression system at 10 uM by Kinomescan method relative to control.
In series [15] the target is Insulin-like growth factor 1 receptor (Homo sapiens) (UniProt P08069). As to the kind of experiment: Inhibition of wild-type human partial length IGF1R (L972 to D1294 residues) expressed in bacterial expression system at 10 uM by Kinomescan method relative to control.
Chain of Insulin-like growth factor 1 receptor (Homo sapiens) (P08069 31-736 limits assumed): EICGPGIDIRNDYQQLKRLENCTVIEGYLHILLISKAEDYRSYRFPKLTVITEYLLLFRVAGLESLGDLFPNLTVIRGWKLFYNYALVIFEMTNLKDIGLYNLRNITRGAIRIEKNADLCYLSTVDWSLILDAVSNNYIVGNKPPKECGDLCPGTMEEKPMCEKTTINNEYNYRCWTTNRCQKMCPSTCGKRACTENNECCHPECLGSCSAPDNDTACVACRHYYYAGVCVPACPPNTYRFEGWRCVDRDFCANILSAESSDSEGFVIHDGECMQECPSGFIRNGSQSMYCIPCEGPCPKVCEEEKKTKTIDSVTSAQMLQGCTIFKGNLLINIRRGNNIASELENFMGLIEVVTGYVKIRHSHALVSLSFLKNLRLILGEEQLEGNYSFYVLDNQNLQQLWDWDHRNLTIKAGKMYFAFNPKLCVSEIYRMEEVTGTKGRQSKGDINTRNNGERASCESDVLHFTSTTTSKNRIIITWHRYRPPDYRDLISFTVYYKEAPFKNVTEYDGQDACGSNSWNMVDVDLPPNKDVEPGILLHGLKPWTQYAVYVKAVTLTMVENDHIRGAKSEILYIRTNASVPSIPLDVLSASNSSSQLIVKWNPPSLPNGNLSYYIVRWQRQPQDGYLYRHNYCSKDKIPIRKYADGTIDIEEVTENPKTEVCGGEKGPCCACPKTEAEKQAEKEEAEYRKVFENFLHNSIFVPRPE
Chain of Insulin-like growth factor 1 receptor (Homo sapiens) (P08069 741-1367 limits assumed): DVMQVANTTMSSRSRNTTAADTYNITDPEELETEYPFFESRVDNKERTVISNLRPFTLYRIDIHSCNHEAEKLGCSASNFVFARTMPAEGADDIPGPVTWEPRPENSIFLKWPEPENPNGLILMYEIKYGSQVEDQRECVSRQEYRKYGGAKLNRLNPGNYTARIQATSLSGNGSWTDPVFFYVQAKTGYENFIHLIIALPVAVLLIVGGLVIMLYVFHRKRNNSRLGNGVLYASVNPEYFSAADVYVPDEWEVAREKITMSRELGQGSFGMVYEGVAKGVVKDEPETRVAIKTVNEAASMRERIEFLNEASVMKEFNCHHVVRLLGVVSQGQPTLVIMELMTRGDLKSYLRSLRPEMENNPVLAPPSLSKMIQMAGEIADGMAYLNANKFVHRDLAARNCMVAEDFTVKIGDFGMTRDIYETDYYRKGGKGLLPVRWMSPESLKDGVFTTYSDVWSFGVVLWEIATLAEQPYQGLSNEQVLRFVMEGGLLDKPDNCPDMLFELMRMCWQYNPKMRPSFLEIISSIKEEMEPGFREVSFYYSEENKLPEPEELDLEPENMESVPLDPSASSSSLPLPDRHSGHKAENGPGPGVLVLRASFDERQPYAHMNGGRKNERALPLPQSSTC
Series [16] concerns the target Ribosomal protein S6 kinase alpha-2 (Homo sapiens) (UniProt Q15349). As to the kind of experiment: Inhibition of wild-type human partial length N-terminal RSK3 kinase domain 1 (M1 to Q385 residues) expressed in bacterial expression system at 10 uM by Kinomescan method relative to control.
In series [17] the target is Death-associated protein kinase 1 (Homo sapiens) (UniProt P53355). As to the kind of experiment: Inhibition of wild-type human partial length DAPK1 (M1 to F296 residues) expressed in bacterial expression system at 10 uM by Kinomescan method relative to control.
For series [18], the system named is Tyrosine-protein kinase ABL1 (Homo sapiens), P00519 [F317I]. The experiment in a line: Inhibition of human phosphorylated ABL1 F317I mutant (S229 to K512 residues) expressed in mammalian expression system at 10 uM by Kinomescan method relative to control.
Series [19] deals with SRSF protein kinase 2 (Homo sapiens) (UniProt P78362). As to the kind of experiment: Inhibition of wild-type human full length SRPK2 (M1 to S686 residues) expressed in bacterial expression system at 1 uM by Kinomescan method relative to control.
Chain of SRSF protein kinase 2 (Homo sapiens) (P78362 whole entry, looked up, the tested form may be a part): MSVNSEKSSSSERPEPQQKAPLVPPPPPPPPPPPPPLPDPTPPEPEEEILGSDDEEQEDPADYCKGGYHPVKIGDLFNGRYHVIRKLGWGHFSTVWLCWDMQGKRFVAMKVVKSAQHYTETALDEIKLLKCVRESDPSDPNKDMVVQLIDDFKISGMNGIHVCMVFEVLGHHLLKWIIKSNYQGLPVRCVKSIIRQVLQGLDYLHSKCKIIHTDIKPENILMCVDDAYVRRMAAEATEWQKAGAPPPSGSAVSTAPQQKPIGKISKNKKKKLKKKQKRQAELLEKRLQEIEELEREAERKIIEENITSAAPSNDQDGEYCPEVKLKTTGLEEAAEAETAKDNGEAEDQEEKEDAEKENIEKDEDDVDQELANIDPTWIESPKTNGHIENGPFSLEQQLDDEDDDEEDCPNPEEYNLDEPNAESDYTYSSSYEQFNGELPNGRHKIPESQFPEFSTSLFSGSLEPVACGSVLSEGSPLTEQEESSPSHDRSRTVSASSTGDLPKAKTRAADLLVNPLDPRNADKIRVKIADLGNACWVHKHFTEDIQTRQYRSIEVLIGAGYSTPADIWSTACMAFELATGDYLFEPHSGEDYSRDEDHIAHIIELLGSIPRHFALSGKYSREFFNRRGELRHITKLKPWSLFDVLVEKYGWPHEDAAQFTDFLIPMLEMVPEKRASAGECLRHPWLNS
For series [20], the target named is NUAK family SNF1-like kinase 2 (Homo sapiens) (UniProt Q9H093). As to the kind of experiment: Inhibition of wild-type human partial length SNARK (P22 to A333 residues) expressed in mammalian expression system at 1 uM by Kinomescan method relative to control.
In series [21] the target is Atypical kinase COQ8A, mitochondrial (Homo sapiens) (UniProt Q8NI60). The experiment in a line: Inhibition of wild-type human […] ADCK3 (M280 to Q647 residues) expressed in bacterial expression system at 1 uM by Kinomescan method relative to control.
In series [22] the target is Serine/threonine-protein kinase PLK3 (Homo sapiens) (UniProt Q9H4B4). The experiment in a line: Inhibition of wild-type human partial length PLK3 (A42 to L334 residues) expressed in mammalian expression system at 1 uM by Kinomescan method relative to control.
Series [23] has as its target LIM domain kinase 1 (Homo sapiens) (UniProt P53667). As to the kind of experiment: Inhibition of wild-type human full length LIMK1 (M1 to D647 residues) expressed in bacterial expression system at 1 uM by Kinomescan method relative to control.
For series [24], the target named is Serine/threonine-protein kinase 38 (Homo sapiens) (UniProt Q15208). As to the kind of experiment: Inhibition of wild-type human partial length NDR1 (N33 to E449 residues) expressed in mammalian expression system at 1 uM by Kinomescan method relative to control.
The target in series [25] is Tyrosine-protein kinase BTK (Homo sapiens, UniProt Q06187). As to the kind of experiment: biochemical.
Chain of Tyrosine-protein kinase BTK (Q06187 whole entry, the tested form may be a part): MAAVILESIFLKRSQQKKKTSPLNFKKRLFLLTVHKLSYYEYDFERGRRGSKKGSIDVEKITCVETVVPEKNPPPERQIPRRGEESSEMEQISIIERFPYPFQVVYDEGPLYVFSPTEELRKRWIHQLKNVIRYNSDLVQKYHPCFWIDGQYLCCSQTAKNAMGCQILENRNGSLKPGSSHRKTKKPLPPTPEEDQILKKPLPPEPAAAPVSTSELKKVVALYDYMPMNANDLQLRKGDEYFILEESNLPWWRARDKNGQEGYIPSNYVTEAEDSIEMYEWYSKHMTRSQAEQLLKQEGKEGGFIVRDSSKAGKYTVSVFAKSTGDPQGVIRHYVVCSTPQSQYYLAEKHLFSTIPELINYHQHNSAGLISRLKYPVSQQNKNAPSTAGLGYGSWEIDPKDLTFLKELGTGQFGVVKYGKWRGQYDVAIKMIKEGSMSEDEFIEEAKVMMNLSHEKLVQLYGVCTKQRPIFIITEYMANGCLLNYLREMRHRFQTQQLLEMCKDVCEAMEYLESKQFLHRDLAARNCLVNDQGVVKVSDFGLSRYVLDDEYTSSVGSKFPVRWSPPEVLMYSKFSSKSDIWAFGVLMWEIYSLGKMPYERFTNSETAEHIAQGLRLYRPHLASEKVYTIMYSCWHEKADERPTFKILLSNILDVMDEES
Description: Reversible inhibition of recombinant full-length N-terminal 6-His-tagged human BTK expressed in baculovirus infected Sf21 insect cells using fluorescent-labeled polyGAT peptide as substrate incubated for 30 mins by TR-FRET assay
Series [26] addresses Platelet-derived growth factor receptor beta (Homo sapiens) (UniProt P09619). As to the kind of experiment: Inhibition of wild-type human partial length PDGFRB (V582 to Y1009 residues) expressed in bacterial expression system at 1 uM by Kinomescan method relative to control.
Series [27] deals with Insulin-like growth factor 1 receptor (Homo sapiens) (UniProt P08069). The experiment in a line: Inhibition of wild-type human partial length IGF1R (L972 to D1294 residues) expressed in bacterial expression system at 1 uM by Kinomescan method relative to control.
Series [28] in a line: Oral bioavailability in Sprague-Dawley rat using amorphous solid form of compound. The format is ADME, organism-based. The note with it: in vivo.

pIC50: −log10 of the molar value.

Chain of Cyclin-dependent kinase-like 2 (Homo sapiens) (Q92772 whole entry, the tested form may be a part): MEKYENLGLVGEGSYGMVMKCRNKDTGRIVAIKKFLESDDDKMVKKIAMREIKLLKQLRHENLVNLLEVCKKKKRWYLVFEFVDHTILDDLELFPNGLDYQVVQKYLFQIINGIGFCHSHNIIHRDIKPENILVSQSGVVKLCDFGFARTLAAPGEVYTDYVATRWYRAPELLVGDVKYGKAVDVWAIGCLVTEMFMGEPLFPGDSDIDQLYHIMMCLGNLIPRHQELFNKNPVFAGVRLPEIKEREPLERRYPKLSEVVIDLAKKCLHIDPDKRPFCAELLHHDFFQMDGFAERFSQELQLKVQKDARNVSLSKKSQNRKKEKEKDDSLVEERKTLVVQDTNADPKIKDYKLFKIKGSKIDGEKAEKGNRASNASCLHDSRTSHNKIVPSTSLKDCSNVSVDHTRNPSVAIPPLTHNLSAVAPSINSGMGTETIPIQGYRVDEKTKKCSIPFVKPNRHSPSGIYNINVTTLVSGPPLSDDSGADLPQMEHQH
Chain of Calcium/calmodulin-dependent protein kinase kinase 2 (Homo sapiens) (Q96RR4 2-588 limits assumed): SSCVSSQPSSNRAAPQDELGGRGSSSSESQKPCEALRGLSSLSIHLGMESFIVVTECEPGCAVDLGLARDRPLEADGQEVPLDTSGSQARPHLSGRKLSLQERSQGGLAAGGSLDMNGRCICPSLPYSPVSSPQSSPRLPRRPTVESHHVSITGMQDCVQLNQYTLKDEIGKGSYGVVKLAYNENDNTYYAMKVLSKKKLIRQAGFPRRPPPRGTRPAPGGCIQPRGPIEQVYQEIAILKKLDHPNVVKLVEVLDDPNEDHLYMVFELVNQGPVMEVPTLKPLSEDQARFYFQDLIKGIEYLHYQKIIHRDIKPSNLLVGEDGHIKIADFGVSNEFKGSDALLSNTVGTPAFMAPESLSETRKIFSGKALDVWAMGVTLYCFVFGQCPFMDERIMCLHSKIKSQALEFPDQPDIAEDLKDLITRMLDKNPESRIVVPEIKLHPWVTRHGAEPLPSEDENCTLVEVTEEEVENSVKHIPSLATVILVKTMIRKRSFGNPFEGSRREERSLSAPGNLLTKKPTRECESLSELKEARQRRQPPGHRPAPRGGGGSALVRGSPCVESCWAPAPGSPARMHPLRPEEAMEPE
Chain of Phosphatidylinositol 5-phosphate 4-kinase type-2 beta (Homo sapiens) (P78356 whole entry, the tested form may be a part): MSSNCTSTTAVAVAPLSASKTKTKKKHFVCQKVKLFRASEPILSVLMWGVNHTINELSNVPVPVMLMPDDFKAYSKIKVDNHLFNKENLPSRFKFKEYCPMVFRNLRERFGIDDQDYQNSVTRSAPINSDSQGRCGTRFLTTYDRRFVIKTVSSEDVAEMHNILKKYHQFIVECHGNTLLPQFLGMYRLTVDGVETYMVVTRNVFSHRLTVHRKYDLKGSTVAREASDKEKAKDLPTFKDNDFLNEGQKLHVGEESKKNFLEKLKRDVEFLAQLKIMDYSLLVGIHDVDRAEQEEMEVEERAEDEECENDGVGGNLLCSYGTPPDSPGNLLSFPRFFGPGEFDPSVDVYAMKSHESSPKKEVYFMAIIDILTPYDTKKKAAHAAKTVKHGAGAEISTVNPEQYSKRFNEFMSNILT

`O=C(Nc1cccc([C@H]2CCCN(c3ncnc4[nH]ccc34)C2)c1)Nc1ccccc1N1CCCC1`: the inhibition stood at 4.7% in series [1]; 100% in [2]; 100% in [3]; 38% in [4]; 100% in series [5]; 92% in series [6]. Also, the inhibition was 89% in [7]; 100% in series [8]; 46% in series [9]; 87% in series [10]; 100% in [11]; 90% in series [12]. Moreover, the inhibition in series [13] stood at 100%; in [14] it was 81%; in series [15], 100%; in series [16], 78%; in series [17], 4%; in series [18] it was 94%.

`O=C(Nc1cccc([C@@H]2CN(c3ncnc4[nH]ccc34)CCN2CCO)c1)Nc1c(F)cccc1N1CCCC1`: the inhibition in series [19] amounted to 88%; in series [20] it was 6.1%; in [21], 100%; in series [22], 74%; in series [23] it was 85%; in [24], 72%. In addition, the inhibition came out at 42% in series [26] and 100% in series [27]. The negative-log IC50 (pIC50) in series [25] is 9.00. The compound also had a bioavailability in [28] of 12%.

By inhibition is commonly meant how much of the control response was suppressed. The term pIC50 denotes −log10 of the IC50, conventionally taken in molar units. A high value points to a small IC50. The term bioavailability denotes the share of a dose that reaches the circulation, judged against a reference dose that is usually intravenous. Read a low bioavailability as poor availability.
